Tests used:
[1] = MTS cytotoxicity assay, overnight, HepG2; format: cell-based; details: human, HepG2 cells, concentration range 100–0.2 µM
Experimental: (§1) Adherent liver hepatocellular carcinoma cell line HepG2 (ATCC, HB-8065) and human acute monocytic leukemia cell line in suspension THP-1 (ATCC, TIB-202) were purchased from American Type Culture Collection (ATCC, Manassas, VA, USA). Cell lines were maintained in complete DMEM/F12 medium (Sigma, D8437, St. Louis, MO, USA) and complete RPMI1640 (Sigma, R7388, St. Louis, MO, USA) respectively, supplemented with 10% Fetal Calf Serum (FCS, Sigma, F7524, St. Louis, MO, USA) at 37 °C in 5% CO2 atmosphere.
(§2) A cytotoxicity assay was performed using MTS CellTiter 96 AQueous One Solution Cell Proliferation Assay (Promega, G3580, Madison, WI, USA). Double dilutions of compounds were prepared in the concentration range of 100–0.2 µM within microplate wells. In each well, 5 × 10^4 cells were added and the plates were incubated overnight at 37 °C in 5% CO2 atmosphere. Following this, 10 µL of MTS (3-(4,5-dimethylthiazol-2-yl)-5-(3-carboxymethoxyphenyl)-2-(4-sulfophenyl)-2H -tetrazolium) reagent was dispensed per well and the plates were incubated for 1–6 h at 37 °C in 5% CO2 atmosphere. Control wells consisted of media only (blank) or cells with 1% DMSO added (control). The absorbance was recorded at 490 nm using a Wallac Victor2 microplate reader (PerkinElmer, Waltham, MA, USA). Results were analyzed in GraphPad Prism software (GraphPad Software, San Diego, CA, USA).

[2] = MTS cytotoxicity assay, overnight, THP-1; format: cell-based, human; details: human, THP-1 cells, overnight, concentration range 100–0.2 µM
Experimental: as §1, §2

[3] = DPPH• radical scavenging assay; details: 100 µM DPPH•, 30 min, room temperature, dark; read-out: DPPH● radical scavenging (RS) activity IC50
Experimental: Vitamin C (Acros Organics, Geel, Belgium) was used as a standard antioxidant control and was prepared in the same way as tested compounds. Dilutions of tested compounds and vitamin C were prepared in a final concentration range of 1 mM–0.01 μM. One milliliter of compound solution was added to 1 mL of freshly prepared DPPH• solution (3.9 mg/50 mL ethanol; final concentration of 100 µM) and the reaction mixture was incubated in the dark at room temperature for 30 min. Absorbance was recorded at 540 nm using a 96-well Wallac Victor2 plate reader. Neutralization of DPPH• radical by a compound was calculated according to the following formula:RS activity (%) = [(A0 − A1)/A0] × 100(1) where A0/A1 is the control/sample absorbance. The results were averages of three measurements. The IC50 value was calculated using GraphPad Prism software (GraphPad Software, San Diego, CA, USA).

[4] = set-up: method as in doi:10.1627/jpi.51.298; details: oxygen atmosphere, 50 °C, compared with para-coumaric acid fragment; cited from earlier work
aldose reductase ALR2 = tested on: aldose reductase ALR2; set-up: method as in doi:10.1007/s00706-018-2146-6; details: cited from earlier work
[5] = tested on: cell lines A549, PC3, MCF-7, HT-29 and WRL68; set-up: method as in PMID 22634834; details: cited from earlier work
THP-1 = assay: MTS cytotoxicity assay, overnight, THP-1; format: cell-based, human; details: up to 100 μM overnight
Experimental: as §1, §2

[6] = tested on: THP-1 cells treated by H2O2; assay: Growth of THP-1 cells pre- or post-treated with H2O2, trypan blue exclusion assay; format: cell-based, human; details: for Effect against cytotoxic / pro-oxidative activity of H2O2 on THP-1 cells: compound at DPPH• IC50 concentration, before or after 5 mM H2O2; for Recovery of THP-1 cells after initial damage: from the 48 h point, H2O2 plus compound
Experimental: The substances without cytotoxic effects and with RS activity were tested for antioxidant potential at the cellular level using THP-1 cells treated by H2O2 [28]. The cells were exposed to the IC50 concentrations of the compounds determined by the DPPH• assay. Compounds were applied 30 min either before or after exposure to 5 mM of H2O2, which is equivalent to the cytotoxic ED50 dose of H2O2 for the THP-1 cells. The cell growth was analyzed every 24 h, via the trypan blue exclusion assay using a Bürker-Türk hemocytometer (Brand GMBH + CO KG, Wertheim, Germany), during a 4-day period. All assays were carried out in triplicates. The comparison of mean values was done by the two-tailed Student’s t-test.

THP-1 cells = details: cited from earlier work

IC50 [3]	SMILES	IC50 [1]	IC50 [2]	also measured
> 1 mM	O=C(/C=C/c1ccc(O)cc1)c1cnccn1 [Compound 3a]	> 100 µM	97 µM	ALR2 inhibition activity (aldose reductase ALR2): moderate ALR2 inhibition activity; RS activity in styrene auto-oxidation [4]: significant RS activity
> 1 mM	CC(C)c1cnc(C(=O)/C=C/c2ccc(O)cc2)cn1 [Compound 3c]	> 100 µM	78 µM	
> 1 mM	CCCCc1cnc(C(=O)/C=C/c2ccc(O)cc2)cn1 [Compound 3d]	> 100 µM	83 µM	
0.186 mM	COc1cc(/C=C/C(=O)c2cnccn2)ccc1O [Compound 4a]	> 100 µM	> 100 µM	Cytotoxicity on THP-1 cells, in words (THP-1): non-toxic; Effect against cytotoxic / pro-oxidative activity of H2O2 on THP-1 cells [6]: lowest effect; RS activity in styrene auto-oxidation [4]: significant RS activity
0.039 mM	COc1cc(/C=C/C(=O)c2cnc(C(C)C)cn2)ccc1O [Compound 4c]	> 100 µM	> 100 µM	Cytotoxicity on THP-1 cells, in words (THP-1): non-toxic; Attenuation of H2O2 effect on THP-1 cells, compound added before H2O2 ([6]; compound at DPPH• IC50 concentration 30 min before 5 mM H2O2, 4 days): most efficient reduction of cytotoxic effect of H2O2; Effect against cytotoxic / pro-oxidative activity of H2O2 on THP-1 cells [6]: greater attenuation of H2O2 effects; Recovery of THP-1 cells after initial damage [6]: considerably greater
0.046 mM	COc1cc(/C=C/C(=O)c2cnc(CC(C)C)cn2)ccc1O [Compound 4e]	> 100 µM	> 100 µM	Cytotoxicity on THP-1 cells, in words (THP-1): non-toxic; Effect of the pure substance on the growth of THP-1 cells ([6]; compound alone at its DPPH• IC50 concentration, 96 h, Figure 2a): no considerable effects; Effect against cytotoxic / pro-oxidative activity of H2O2 on THP-1 cells [6]: greater attenuation of H2O2 effects; Recovery of THP-1 cells after initial damage [6]: considerably greater

The next lines start with the compound.

SMILES	IC50 [3]	IC50 [1]	IC50 [2]	also measured
O=C(/C=C/c1ccccc1O)c1ccccc1 [Compound 1]	> 1 mM	> 100 µM	70 µM	
O=C(/C=C/c1ccccc1O)c1cnccn1 [Compound 1a]	> 1 mM	> 100 µM	40 µM	RS activity in styrene auto-oxidation [4]: significant RS activity
CCCc1cnc(C(=O)/C=C/c2ccccc2O)cn1 [Compound 1b]		> 100 µM	> 100 µM	
CC(C)c1cnc(C(=O)/C=C/c2ccccc2O)cn1 [Compound 1c]	> 1 mM	> 100 µM	96 µM	
CCCCc1cnc(C(=O)/C=C/c2ccccc2O)cn1 [Compound 1d]	> 1 mM	86 µM	27 µM	
CC(C)Cc1cnc(C(=O)/C=C/c2ccccc2O)cn1 [Compound 1e]		> 100 µM	94 µM	
CC(C)(C)c1cnc(C(=O)/C=C/c2ccccc2O)cn1 [Compound 1f]		> 100 µM	> 100 µM	
O=C(/C=C/c1cccc(O)c1)c1ccccc1 [Compound 2]	> 1 mM	> 100 µM	51 µM	
O=C(/C=C/c1cccc(O)c1)c1cnccn1 [Compound 2a]	> 1 mM	100 µM	50 µM	ALR2 inhibition activity (aldose reductase ALR2): moderate ALR2 inhibition activity
CCCc1cnc(C(=O)/C=C/c2cccc(O)c2)cn1 [Compound 2b]		> 100 µM	48 µM	
CC(C)c1cnc(C(=O)/C=C/c2cccc(O)c2)cn1 [Compound 2c]	> 1 mM	97 µM	83 µM	
CCCCc1cnc(C(=O)/C=C/c2cccc(O)c2)cn1 [Compound 2d]	> 1 mM	> 100 µM	67 µM	
CC(C)Cc1cnc(C(=O)/C=C/c2cccc(O)c2)cn1 [Compound 2e]		> 100 µM	> 100 µM	
CC(C)(C)c1cnc(C(=O)/C=C/c2cccc(O)c2)cn1 [Compound 2f]		> 100 µM	> 100 µM	
O=C(/C=C/c1ccc(O)cc1)c1ccccc1 [Compound 3]	> 1 mM	> 100 µM	> 100 µM	ALR2 inhibition activity (aldose reductase ALR2): comparable ALR2 inhibition; Cytotoxicity against A549, PC3, MCF-7, HT-29 and WRL68 [5]: significant cytotoxicity
CCCc1cnc(C(=O)/C=C/c2ccc(O)cc2)cn1 [Compound 3b]		> 100 µM	94 µM	
CC(C)Cc1cnc(C(=O)/C=C/c2ccc(O)cc2)cn1 [Compound 3e]		> 100 µM	> 100 µM	
CC(C)(C)c1cnc(C(=O)/C=C/c2ccc(O)cc2)cn1 [Compound 3f]		> 100 µM	> 100 µM	
COc1cc(/C=C/C(=O)c2ccccc2)ccc1O [Compound 4]		> 100 µM	> 100 µM	
COc1cc(/C=C/C(=O)c2cnc(C(C)(C)C)cn2)ccc1O [Compound 4f]		> 100 µM	36 µM	
OO [Compound H2O2, hydrogen peroxide]				Cytotoxic ED50 dose for THP-1 cells (THP-1 cells): 5 mM
